The results in this text go back to US9315494B2, “Alkyl-amide-substituted pyridyl compounds useful as modulators of IL-12, IL-23 and/or IFNα responses” (Bristol-Myers Squibb Company, priority 2012, dated 2016).

Assay [1] has as its system IL-23-stimulated STAT-dependent luciferase reporter in Kit225 T cells. The assay can be described thus: Kit225 T cell assay, IL-23 stimulated STAT-dependent luciferase reporter. The assay is classed as cell-based, human. As to conditions: Kit225 T cells, 20 ng/mL human recombinant IL-23, 5-6 hours, luciferase; read-out: IL23 (Kit225 T Cell Inhibition Data). The method, boiled down: (§1)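 Kit225 T cells carrying a stably integrated STAT-luciferase reporter, in RPMI with 10% heat-inactivated FBS, were stimulated with 20 ng/mL IL-23 or 200 U/mL IFNα for 5-6 h. Readout was luminescence from the luciferase reporter.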
Background: Reporter assays use an easily measured gene product as a stand-in for the process of interest.

Assay [2] has as its target T1, recombinantly expressed His-tagged protein corresponding to amino acids 575-869 of human Tyk2 (Homo sapiens, UniProt P29597).
T1 construct: corresponding to amino acids 575-869 of human Tyk2; made in house
As to the kind of experiment: Probe displacement assay (scintillation proximity, [3H] probe). It counts as binding. The following applies: 2.5 nM Tyk2 (575-869), 40 nM radiolabeled probe, 30 minutes at room temperature. The procedure:
The probe displacement assay is conducted as follows: In a […], test compounds along with recombinantly expressed His-tagged protein corresponding to amino acids 575-869 of human Tyk2 (sequence shown below) at 2.5 nM, 40 nM ((R)-N-(1-(3-(8-methyl-5-(methylamino)-8H-imidazo[4,5-d]thiazolo[5,4-b]pyridin-2-yl)phenyl)ethyl)-2-([^3H]methylsulfonyl)benzamide) (preparation described below) and 80 μg/mL Copper His-Tag scintillation proximity assay beads (Perkin Elmer, Catalog #RPNQ0095) in 50 mM HEPES, pH 7.5, containing 100 μg/mL bovine serum albumin and 5% DMSO were incubated for 30 minutes at room temperature. The amount of radiolabeled probe (preparation described below) bound to Tyk2 was then quantified by scintillation counting, and the inhibition by the test compound calculated by comparison to wells either with no inhibitor (0% inhibition) or without Tyk2 (100% inhibition).
Protein Sequence of recombinant Hig-tagged Tyk2 (575-869):
The preparation of radiolabeled probe, (R)-N-(1-(3-(8-methyl-5-(methylamino)-8H-imidazo[4,5-d]thiazolo[5,4-b]pyridin-2-yl)phenyl)ethyl)-2-([^3H]methylsulfonyl)benzamide, was performed as described below: […]
Background: In a scintillation proximity assay essentially only radioactivity close to the scintillant gives light.

For assay [3], the system named is IFNα-stimulated STAT-dependent luciferase reporter in Kit225 T cells. The assay can be described thus: Kit225 T cell assay, IFNα stimulated STAT-dependent luciferase reporter. It counts as cell-based, human. As to conditions: Kit225 T cells, 200 U/mL human recombinant IFNα, 5-6 hours, luciferase; read-out: IFNα (Kit225 T Cell Inhibition Data). A digest of the protocol: as §1

Each structure is given as a SMILES string.

T1 sequence (P29597 575-869): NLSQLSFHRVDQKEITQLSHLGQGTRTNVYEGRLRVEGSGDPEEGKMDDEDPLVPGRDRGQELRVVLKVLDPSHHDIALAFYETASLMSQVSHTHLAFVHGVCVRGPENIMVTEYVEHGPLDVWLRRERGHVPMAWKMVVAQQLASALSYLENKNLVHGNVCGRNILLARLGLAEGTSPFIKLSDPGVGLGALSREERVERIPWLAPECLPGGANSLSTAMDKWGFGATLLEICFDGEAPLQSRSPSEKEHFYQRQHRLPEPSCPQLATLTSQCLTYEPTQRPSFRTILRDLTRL

Take `CNC(=O)c1cnc(Nc2ccc(F)cn2)cc1Nc1cc(F)cc(F)c1OC` [Example 205]: the IC50 in assay [1] came out at 372 nM; in assay [3] it was 180 nM. The 50% effective concentration (EC50) in assay [2] is 25.1 nM.

As to `CNC(=O)c1cnc(Nc2ccc(F)cn2)cc1Nc1ccc(N2CCOCC2)cc1` [Example 211], the values for the IC50 in assay [1] and in assay [3] were 4270 nM and 3150 nM, respectively. In addition, the EC50 in assay [2] worked out at 246 nM.

Turning to `CNC(=O)c1cnc(Nc2ccc(N3CCOCC3)cn2)cc1Nc1ccccc1C` [Example 217], the IC50 in assay [1] came out at 3310 nM; in assay [3], 1480 nM. Also, in assay [2], the EC50 stood at 291 nM.

As for `CNC(=O)c1cnc(Nc2ccc(N3CCOCC3)cn2)cc1Nc1ccccc1CCO` [Example 224], the values for the IC50 in assay [1] and in assay [3] were 5610 nM and 4600 nM, respectively. The EC50 in assay [2] stood at 597 nM.

Turning to `CNC(=O)c1cnc(Nc2ccc(N3CCOCC3)cn2)cc1Nc1ccccc1SC` [Example 226], the IC50 in assay [1] was 151 nM; in assay [3], 140 nM. In addition, the EC50 in assay [2] was 20.1 nM.

As for `CNC(=O)c1cnc(Nc2ccc(N3CCOCC3)cn2)cc1Nc1ccccc1OC(F)F` [Example 228], the IC50 was 144 nM in assay [1] and 140 nM in assay [3]. Also, in assay [2], the EC50 was 36.7 nM.

For the molecule `CNC(=O)c1ccc(Nc2cc(Nc3ccc(F)cn3)ncc2C(=O)NC)c(OC)c1` [Example 237], the IC50 in assay [1] was 470 nM; in assay [3] it was 460 nM. Moreover, the EC50 in assay [2] amounted to 29.1 nM.

Turning to `CNC(=O)c1cnc(Nc2ccc(F)cn2)cc1Nc1ccc(C(=O)NCCO)cc1OC` [Example 238], the values for the IC50 in assay [1] and in assay [3] were 4250 nM and 2360 nM, respectively. For the same molecule, the EC50 in assay [2] amounted to 6.3 nM.

As to `CNC(=O)c1cnc(Nc2ccc(C(=O)NC3CC3)cn2)cc1Nc1ccc(Cl)cc1OC` [Example 261], the IC50 in assay [1] came to 2180 nM; in assay [3], 1370 nM. The EC50 in assay [2] turned out to be 155 nM.

Regarding `CNC(=O)c1cnc(Nc2cc(C(=O)NCCOC)ccn2)cc1Nc1cc(F)cc(F)c1OC` [Example 266], the values for the IC50 in assay [1] and in assay [3] were 312 nM and 160 nM, respectively. The EC50 in assay [2] was 6.5 nM.

Turning to `CNC(=O)c1cnc(Nc2ccc3ccccc3n2)cc1N[C@@H]1CCCC[C@@H]1C(N)=O` [Example 286], the results for the IC50 in assay [1] and in assay [3] were 4220 nM and 1980 nM, respectively. Also, in assay [2], the EC50 is 106 nM.

Regarding `CNC(=O)c1cnc(Nc2ccc3ccccc3n2)cc1NC1CCCC1C(N)=O` (stereo not drawn) [Example 289], the IC50 in assay [1] is 12500 nM; in assay [3], 7300 nM. For the same molecule, the EC50 in assay [2] came to 495 nM.

Consider `[2H]C([2H])([2H])NC(=O)c1cnc(Nc2ccc(F)cn2)cc1Nc1ccccc1S(C)(=O)=O` [Example 298], for which the IC50 was found to be 110 nM in assay [1] and 60 nM in assay [3]. For the same molecule, in assay [2], the EC50 worked out at 6.5 nM.

For the molecule `CNC(=O)c1cnc(Nc2ccc(F)cn2)cc1Nc1ccccc1S(=O)(=O)N(C)C` [Example 302], the IC50 in assay [1] worked out at 4060 nM; in assay [3] it was 2090 nM. In addition, the EC50 in assay [2] was 182 nM.

Turning to `CNC(=O)c1cnc(Nc2ccc(F)cn2)cc1Nc1cccc(C(N)=O)c1OC` [Example 315, 4-((3-carbamoyl-2-methoxyphenyl)amino)-6-((5-fluoropyridin-2-yl)amino)-N-methylnicotinamide], the IC50 came to 90 nM in assay [1] and 80 nM in assay [3]. Moreover, the EC50 in assay [2] worked out at 5 nM.

As for `CNC(=O)c1cnc(Nc2cc(C)c(F)cn2)cc1Nc1cccc(C(=O)NCC2CCCCC2)c1OC` [Example 325], the IC50 in assay [1] was 460 nM; in assay [3], 210 nM. Also, the EC50 in assay [2] amounted to 76.4 nM.

With `CNC(=O)c1cnc(Nc2cc(C)c(F)cn2)cc1Nc1cccc(C(=O)NCc2ccccn2)c1OC` [Example 327], the IC50 came to 100 nM in assay [1] and 10 nM in assay [3]. Further, the EC50 in assay [2] turned out to be 15.3 nM.

Take `CCC(CC)CNC(=O)c1cccc(Nc2cc(Nc3cc(C)c(F)cn3)ncc2C(=O)NC)c1OC` [Example 334]: the figures for the IC50 in assay [1] and in assay [3] were 310 nM and 230 nM, respectively. Besides, in assay [2], the EC50 stood at 14 nM.

The EC50 is the concentration that produces a half-maximal response.
